Measurements from PMC3350798 (Journal of Medicinal Chemistry, 2012).
Entries after “also recorded” stand apart in the source; their conditions may differ. Read-outs that look alike come from different tables or passages of the source. Blank lines part the entries; values can stand above or below the compound they belong to.

Tests used:
[1] = target: T1, Tdp1 (Homo sapiens, UniProt Q9NUW8); conditions: cited from earlier work
[2] = target: T1, Tdp1; assay: Surface plasmon resonance binding to amine coupled Tdp1; conditions: 33, 11, 3.7, 1.2 and 0.4 μM injected over amine coupled Tdp1
[3] = target: T1, Tdp1; assay: FRET assay, mechanism of inhibition of Tdp1; format: biochemical
[4] = target: T2, Human recombinant Top1 (Homo sapiens, UniProt P11387); assay: Topoisomerase I-mediated DNA cleavage assay; format: biochemical; conditions: semiquantitative, relative to 1 μM camptothecin
T2 sequence (P11387 1-765): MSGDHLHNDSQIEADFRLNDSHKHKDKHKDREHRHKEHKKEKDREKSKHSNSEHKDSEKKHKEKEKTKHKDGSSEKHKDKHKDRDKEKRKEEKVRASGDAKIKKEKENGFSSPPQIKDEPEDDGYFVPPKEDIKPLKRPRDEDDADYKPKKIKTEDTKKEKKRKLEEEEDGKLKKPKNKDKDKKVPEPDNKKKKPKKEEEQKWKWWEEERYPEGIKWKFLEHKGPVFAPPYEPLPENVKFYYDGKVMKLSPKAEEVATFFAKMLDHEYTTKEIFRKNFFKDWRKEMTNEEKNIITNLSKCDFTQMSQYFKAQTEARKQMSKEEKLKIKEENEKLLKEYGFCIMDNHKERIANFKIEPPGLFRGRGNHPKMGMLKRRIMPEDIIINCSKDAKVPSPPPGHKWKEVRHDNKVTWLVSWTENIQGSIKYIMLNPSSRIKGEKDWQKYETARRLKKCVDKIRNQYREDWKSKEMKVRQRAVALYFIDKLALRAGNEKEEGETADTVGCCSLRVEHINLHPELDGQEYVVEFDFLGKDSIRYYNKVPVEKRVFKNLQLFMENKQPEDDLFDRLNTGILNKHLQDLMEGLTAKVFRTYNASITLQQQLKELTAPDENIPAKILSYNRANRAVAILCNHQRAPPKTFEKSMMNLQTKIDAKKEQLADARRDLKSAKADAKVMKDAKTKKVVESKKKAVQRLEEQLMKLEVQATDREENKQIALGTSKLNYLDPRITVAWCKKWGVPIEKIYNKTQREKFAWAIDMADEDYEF

[5] = test system: 60 human cancer cell lines; conditions: read-out: MGM GI50, mean graph midpoint; cited from earlier work

T1 sequence (Q9NUW8 whole entry): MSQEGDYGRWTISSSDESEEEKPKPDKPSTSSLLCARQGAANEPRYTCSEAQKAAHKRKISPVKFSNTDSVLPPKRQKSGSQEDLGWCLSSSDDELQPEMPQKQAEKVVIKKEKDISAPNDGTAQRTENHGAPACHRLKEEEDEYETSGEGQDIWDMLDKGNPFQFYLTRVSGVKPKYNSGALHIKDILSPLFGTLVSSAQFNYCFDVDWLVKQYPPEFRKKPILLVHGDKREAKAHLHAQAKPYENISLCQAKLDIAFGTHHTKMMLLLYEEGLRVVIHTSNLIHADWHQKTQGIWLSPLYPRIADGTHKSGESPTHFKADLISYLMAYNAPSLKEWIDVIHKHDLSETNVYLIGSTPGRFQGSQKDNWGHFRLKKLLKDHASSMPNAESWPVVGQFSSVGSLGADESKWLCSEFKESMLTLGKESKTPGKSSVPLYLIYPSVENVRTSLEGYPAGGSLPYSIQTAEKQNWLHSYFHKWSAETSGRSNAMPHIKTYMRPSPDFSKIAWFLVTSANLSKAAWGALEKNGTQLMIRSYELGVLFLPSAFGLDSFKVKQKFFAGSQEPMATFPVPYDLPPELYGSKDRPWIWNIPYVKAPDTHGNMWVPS

Structure (SMILES): C[C@]12CC[C@H]3[C@@H](CCC4=CC(=O)CC[C@@]43C)[C@@H]1CC[C@@H]2C(=O)COS(=O)(=O)c1ccc(Br)cc1 [compound 7, 4-Pregnen-21-ol-3,20-dione-21-(4-bromobenzenesufonate)]
Mechanism of inhibition of Tdp1 [1]: competitive with the DNA substrate

Mechanism of inhibition of Tdp1 [3]: competitive inhibitor
Structure (SMILES): Cl.NCCCn1c2c(c3ccccc3c1=O)C(=O)c1ccccc1-2 [compound 70]
Binding to Tdp1 by surface plasmon resonance [2]: direct binding; also recorded: rapidly reaches equilibrium and then completely dissociates

Structure (SMILES): Cl.NCCCCCCCCCCCCn1c2c(c3ccccc3c1=O)C(=O)c1ccccc1-2 [compound 79]
Top1 (compound-induced DNA cleavage due to Top1 inhibition) [4]: 0/+

Structure (SMILES): O=C1c2ccccc2-c2c1c1ccccc1c(=O)n2CCCNCCCNCCCn1c2c(c3ccccc3c1=O)C(=O)c1ccccc1-2 [compound 145, Bis-1,3-{(5,6-dihydro-5,11-diketo-11H-indeno[1,2-c]isoquinoline)-6-propylamino}propane Bis(trifluoroacetate)]
GI50 [5]: 394 nM

Structure (SMILES): [O]=[V]([O-])([O-])[O-] [vanadate]
Tdp1 inhibition [1]: inhibition at millimolar concentrations
